Values joined by “and” are separate entries in the source; they are usually repeats but may differ in a detail not shown here. Equal values may be shown once.
biological target: T1, PI3K (p110α/p85α) (Homo sapiens, UniProt P42336); experiment: PI3K activity assay (ADP Hunter Plus); type: biochemical; conditions: read-out: PI3Kα IC50
T1 construct: purchased Carna Biosciences 07CBS-0402A
Method: The kinase activity was measured by using the commercial ADP Hunter™ Plus assay available from DiscoveRx, (#33-016), which is a homogeneous assay to measure the accumulation of ADP, a universal product of kinase activity. The enzyme, PI3K (p110α/p85α, was purchased from Carna Biosciences (#07CBS-0402A). The assay was done following the manufacturer recommendations with slight modifications: Mainly the kinase buffer was replace by 50 mM HEPES, pH 7.5, 3 mM MgCl2, 100 mM NaCl, 1 mM EGTA, 0.04% CHAPS, 2 mM TCEP and 0.01 mg/ml BGG. The PI3K was assayed in a titration experiment to determine the optimal protein concentration for the inhibition assay. To calculate the IC50 of the ETP-compounds, serial 1:5 dilutions of the compounds were added to the enzyme at a fixed concentration (2.5 μg/ml. The enzyme was preincubated with the inhibitor and 30 μM PIP2 substrate (P9763, Sigma) for 5 min and then ATP was added to a final 50 μM concentration. Reaction was carried out for 1 hour at 25° C. Reagent A and B were sequentially added to the wells and plates were incubated for 30 min at 37° C. Fluorescence counts were read in a Victor instrument (Perkin Elmer) with the recommended settings (544 and 580 nm as excitation and emission wavelengths, respectively). Values were normalized against the control activity included for each enzyme (i.e., 100% PI3 kinase activity, without compound). These values were plot against the inhibitor concentration and were fit to a sigmoid dose-response curve by using the Graphad software.

T1 sequence (P42336 whole entry): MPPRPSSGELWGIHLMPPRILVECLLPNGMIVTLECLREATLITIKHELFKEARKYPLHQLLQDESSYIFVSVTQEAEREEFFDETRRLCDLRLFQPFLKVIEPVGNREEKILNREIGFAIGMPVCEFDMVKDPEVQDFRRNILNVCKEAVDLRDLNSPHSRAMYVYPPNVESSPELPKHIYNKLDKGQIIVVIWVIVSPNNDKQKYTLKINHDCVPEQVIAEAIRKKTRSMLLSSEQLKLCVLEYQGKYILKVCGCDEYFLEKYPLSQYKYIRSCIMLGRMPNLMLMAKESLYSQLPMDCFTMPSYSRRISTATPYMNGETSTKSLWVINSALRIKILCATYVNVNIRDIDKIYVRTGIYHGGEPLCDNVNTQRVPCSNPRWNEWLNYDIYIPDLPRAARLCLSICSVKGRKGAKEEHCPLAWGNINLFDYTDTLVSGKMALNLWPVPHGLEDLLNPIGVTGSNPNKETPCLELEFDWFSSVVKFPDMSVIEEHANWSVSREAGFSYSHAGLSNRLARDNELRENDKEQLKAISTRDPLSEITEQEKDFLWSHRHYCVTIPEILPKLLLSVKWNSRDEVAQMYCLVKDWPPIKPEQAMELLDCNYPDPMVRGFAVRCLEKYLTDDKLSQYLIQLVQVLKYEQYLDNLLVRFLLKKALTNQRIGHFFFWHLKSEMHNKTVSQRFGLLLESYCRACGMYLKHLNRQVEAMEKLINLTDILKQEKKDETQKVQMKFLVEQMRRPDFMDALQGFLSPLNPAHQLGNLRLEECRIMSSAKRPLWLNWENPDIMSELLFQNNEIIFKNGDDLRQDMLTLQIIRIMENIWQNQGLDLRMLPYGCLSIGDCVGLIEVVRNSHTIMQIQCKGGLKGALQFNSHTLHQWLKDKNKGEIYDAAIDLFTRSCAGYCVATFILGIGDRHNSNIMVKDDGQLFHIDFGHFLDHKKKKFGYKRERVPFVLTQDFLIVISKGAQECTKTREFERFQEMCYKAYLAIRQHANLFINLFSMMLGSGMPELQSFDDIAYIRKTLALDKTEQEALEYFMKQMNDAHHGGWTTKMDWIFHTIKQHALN
T1 sequence (P27986 whole entry partner): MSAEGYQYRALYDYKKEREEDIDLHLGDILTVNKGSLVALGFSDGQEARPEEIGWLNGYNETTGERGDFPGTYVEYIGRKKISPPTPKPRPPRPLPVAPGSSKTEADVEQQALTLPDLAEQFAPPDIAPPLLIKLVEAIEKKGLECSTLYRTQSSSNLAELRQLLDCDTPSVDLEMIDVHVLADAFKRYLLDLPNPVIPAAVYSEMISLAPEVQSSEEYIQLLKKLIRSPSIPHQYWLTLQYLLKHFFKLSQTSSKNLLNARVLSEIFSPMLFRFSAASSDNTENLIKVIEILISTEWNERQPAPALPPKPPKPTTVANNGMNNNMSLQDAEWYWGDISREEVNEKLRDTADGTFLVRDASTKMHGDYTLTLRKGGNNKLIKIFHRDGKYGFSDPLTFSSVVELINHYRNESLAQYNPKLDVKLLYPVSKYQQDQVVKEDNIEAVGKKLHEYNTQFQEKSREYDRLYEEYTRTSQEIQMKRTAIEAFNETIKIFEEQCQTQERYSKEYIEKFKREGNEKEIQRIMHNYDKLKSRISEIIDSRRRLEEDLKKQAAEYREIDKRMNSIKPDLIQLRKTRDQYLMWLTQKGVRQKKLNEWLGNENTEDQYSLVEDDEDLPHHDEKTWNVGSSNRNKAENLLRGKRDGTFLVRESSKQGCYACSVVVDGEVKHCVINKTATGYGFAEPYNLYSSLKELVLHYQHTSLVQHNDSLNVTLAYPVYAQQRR

First: NC(=O)c1cn2nc(-c3cnc(N)nc3)nc(N3CCOCC3)c2n1 [1-01]
Second: COCCNC(=O)c1cn2nc(-c3cnc(N)nc3)nc(N3CCOCC3)c2n1 [1-02]
The IC50 of the first is 6.3-fold higher: 0.019 µM for the first, 0.003 µM for the second.

Compared with `Nc1ncc(-c2cn3nc(C(=O)NC4CCOCC4)cc3c(N3CCOCC3)n2)cn1` [1-04], `Nc1ncc(-c2cn3nc(C(=O)N[C@H]4CC[C@H](O)CC4)cc3c(N3CCOCC3)n2)cn1` [1-10, 6-(2-amino-pyrimidin-5-yl)-4-morpholin-4-yl-pyrazolo[1,5-a]pyrazine-2-carboxylic acid (4-hydroxy-cyclohexyl)-amide] is 1.6-fold lower in IC50: 0.026 µM for the first, 0.016 µM for the second.

Compared with `NC(=O)c1cc2c(N3CCOCC3)nc(-c3cnc(N)nc3)cn2n1` [1-05, 6-(2-amino-pyrimidin-5-yl)-4-morpholin-4-yl-pyrazolo[1,5-a]pyrazine-2-carboxylic acid amide], `Nc1ncc(-c2cn3nc(C(=O)N4CCCC4)cc3c(N3CCOCC3)n2)cn1` [1-07, [6-(2-amino-pyrimidin-5-yl)-4-morpholin-4-yl-pyrazolo[1,5-a]pyrazin-2-yl]-pyrrolidin-1-yl-methanone] is 1.6-fold lower in IC50: 0.014 µM for the first, 0.009 µM for the second. The second is the more potent here.

`CN(C)CCCNC(=O)c1cc2c(N3CCOCC3)nc(-c3cnc(N)nc3)cn2n1` [1-09, 6-(2-amino-pyrimidin-5-yl)-4-morpholin-4-yl-pyrazolo[1,5-a]pyrazine-2-carboxylic acid (3-dimethylamino-propyl)-amide] was tested, and the IC50 was 0.443 µM.

For `COCCNC(=O)c1cc2c(N3CCOCC3)nc(-c3cnc(N)nc3)cn2n1` [1-03], the IC50 was 0.029 µM and < 0.1 µM.

Source: patent publication US20130131057A1, “NEW BICYCLIC COMPOUNDS AS PI3-K AND MTOR INHIBITORS” (CENTRO NACIONAL DE INVESTIGACIONES ONCOLOGICAS (CNIO, priority 2010, published 2013)
